Test results taken from patent US20010046662A1, “Method of inactivating pathogens in a red blood cell-containing composition” (priority 2000, published 2001).
“And” between values parts separate entries of the source, which are not always exact repeats. Equal values may be shown once.

Key:
VSV = format: cell-based, vesicular stomatitis virus
red cells = test: Red cell hemolysis at day 42 for DMMB+light treated samples in a flow system; conditions: for Hemolysis (%), day 42: approximately 3.5 μM DMMB, no blocker, stored at 1-6° C.
red blood cells = conditions: with type 1/type 2 quenchers, optimized conditions; cited from earlier work

Compound: Cc1cc(N(C)C)cc2[s+]c3cc(N(C)C)cc(C)c3nc12 [DMMB, 1,9-dimethylmethylene blue]
- increase in VSV inactivation with greater light fluences (VSV): 50%
- Hemolysis (%), day 42 (red cells; light fluence 226 mJ/cm^2): 2.8% and 2.84%
- Hemolysis (%), day 42 (red cells; light fluence 889 mJ/cm^2): 14.5% and 14.53%
- Hemolysis (%), day 42 (red cells; light fluence 1597 mJ/cm^2): 12.10%
- increase in hemolysis with greater light fluences (red cells; samples lacking riboflavin, 2.8 to 14.5%): 500%

Compound: Cc1cc2nc3c(=O)[nH]c(=O)nc-3n(C[C@H](O)[C@H](O)[C@H](O)CO)c2cc1C [riboflavin, 7,8-dimethyl-10-ribitylisoalloxazine]
- enhancement of VSV inactivation by addition of the blocker (VSV): > 4.1 log10

Compound: phthalocyanine 4
- cells that hemolyze after 21 days of storage (red blood cells): about 2%
